Among the data in PubChem BioAssay (NCI) are TGI values, retold here.

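Following 48 hours of exposure in 96-well plates, responses at five concentrations were used to interpolate endpoints linearly. TGI: total growth inhibition.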 Where only a bound is given, the exact number is not on record here.

Test systems include ACHN renal; CAKI-1 renal; HCT-15 colon; IGROV1 ovarian; MCF7 breast; NCI-H226 lung; SNB-75 CNS; SR leukemia; T-47D breast; UACC-257 melanoma.
Holding throughout (assay): NCI tumour cell line growth inhibition, 48 h

For `COc1ccc(-c2c(C#N)c(S)n(NS(=O)(=O)c3ccccc3)c(=O)c2C#N)cc1`, the TGI with ACHN renal, with CAKI-1 renal, in the assay on HCT-15 colon, in the assay on IGROV1 ovarian, in the assay with MCF7 breast and with NCI-H226 lung was over 100 µM each time. The TGI in the assay with SNB-75 CNS is over 100 µM; in the assay with SR leukemia, 80.3 µM; in the assay on T-47D breast, over 100 µM; in the assay on UACC-257 melanoma, over 100 µM.
In the case of `CC(=O)OC(C)(C)CCC(=O)[C@](C)(O)[C@H]1[C@H](O)C[C@@]2(C)[C@@H]3CCc4c(cc(OC5OC(CO)C(O)C(O)C5O)c(O)c4C)C3(C)C(=O)C[C@]12C` (stereo not given in full), the TGI in the assay on ACHN renal, in the assay with CAKI-1 renal, in the assay on HCT-15 colon, with IGROV1 ovarian, with MCF7 breast and in the assay with NCI-H226 lung was over 100 µM in each case. Also, the TGI with SNB-75 CNS, in the assay with SR leukemia, in the assay with T-47D breast and in the assay with UACC-257 melanoma was over 100 µM in each case.
On to `COc1ccc(/C=C2\C[C@H]3[C@@H]4CCC5=CC(=O)CC[C@]5(C)[C@H]4CC[C@]3(C)C2=O)cc1OC`, for which the TGI with ACHN renal, in the assay with CAKI-1 renal, with HCT-15 colon, with IGROV1 ovarian, in the assay with MCF7 breast and in the assay with NCI-H226 lung was over 100 µM throughout. The TGI was over 100 µM in the assay on SNB-75 CNS, 7.4 µM in the assay with SR leukemia, over 100 µM in the assay on T-47D breast and 68.4 µM in the assay on UACC-257 melanoma.
With `O=C1CC(=O)NC(=NNS(=O)(=O)c2ccc(Cl)cc2)N1`, the TGI with ACHN renal, with CAKI-1 renal, in the assay on HCT-15 colon, in the assay with IGROV1 ovarian, in the assay on MCF7 breast and with NCI-H226 lung was over 100 µM in each case. The TGI in the assay with SNB-75 CNS, in the assay on SR leukemia, in the assay with T-47D breast and in the assay with UACC-257 melanoma was over 100 µM each time.
As for `CC1C(C#N)(C#N)C(C#N)=C(N)C1(Cl)[N+](=O)[O-]` (stereo not given), the TGI was determined as 23.7 µM in the assay on ACHN renal; 18.6 µM with CAKI-1 renal; 13.1 µM with HCT-15 colon; 22.5 µM in the assay with IGROV1 ovarian; 47.4 µM with MCF7 breast; 31.6 µM in the assay with NCI-H226 lung. For the same compound, the TGI in the assay on SNB-75 CNS is 24.7 µM; in the assay on SR leukemia it was 26.5 µM; in the assay with T-47D breast it was 42.7 µM; in the assay with UACC-257 melanoma it was 24.5 µM.
Consider `O=C(CC(Cl)=C(Cl)Cl)c1ccccc1`, for which the TGI was over 100 µM in the assay with ACHN renal; 53.6 µM with CAKI-1 renal; 70.6 µM with HCT-15 colon; over 100 µM in the assay with IGROV1 ovarian; over 100 µM in the assay with MCF7 breast; 72.5 µM in the assay on NCI-H226 lung. The TGI with SNB-75 CNS is over 100 µM; in the assay with SR leukemia it was 43.7 µM; in the assay with T-47D breast it was over 100 µM; in the assay on UACC-257 melanoma, 70 µM.
For the compound `CCOC(=O)c1nc2ccc(C(F)(F)F)cc2nc1Oc1ccc(C(=O)OC)cc1`, the TGI in the assay on ACHN renal, in the assay on CAKI-1 renal, with HCT-15 colon, with IGROV1 ovarian, in the assay on MCF7 breast and with NCI-H226 lung was over 100 µM each time. The TGI with SNB-75 CNS, with SR leukemia, in the assay with T-47D breast and with UACC-257 melanoma was over 100 µM each time.
On to `CN1CC2CN(Cc3ccccc3)CCN2c2cccnc21` (stereo not given), for which the TGI in the assay with ACHN renal, with CAKI-1 renal, with HCT-15 colon, with IGROV1 ovarian, in the assay on MCF7 breast and in the assay on NCI-H226 lung was over 100 µM throughout. The TGI with SNB-75 CNS, in the assay with SR leukemia, with T-47D breast and with UACC-257 melanoma was over 100 µM throughout.
On to `COC(=O)CCC(NC(=O)OC(C)(C)C)C(=O)NC(Cc1ccc(NC(=O)CCCC(C)=O)cc1)C(=O)NC(CCC(=O)OC)C(=O)OC` (stereo not given), for which the TGI in the assay on ACHN renal, in the assay on CAKI-1 renal, in the assay on HCT-15 colon, in the assay on IGROV1 ovarian, with MCF7 breast and in the assay with NCI-H226 lung was over 100 µM in each case. Also, the TGI with SNB-75 CNS, in the assay on SR leukemia, with T-47D breast and in the assay on UACC-257 melanoma was over 100 µM in each case.
As to `CCN1CN(c2ccccc2)C2(CCN(CC(CC3OCCO3)c3ccc(F)cc3)CC2)C1=O` (stereo not given), the TGI is over 30.5 µM with ACHN renal; 22.5 µM with CAKI-1 renal; over 67.5 µM with HCT-15 colon; over 53.8 µM in the assay on IGROV1 ovarian; 7.22 µM with MCF7 breast; 65 µM in the assay on NCI-H226 lung. For the same compound, the TGI in the assay with SNB-75 CNS was 93 µM; in the assay with SR leukemia it was over 100 µM; with T-47D breast it was 38.9 µM; in the assay on UACC-257 melanoma, 13.8 µM.
`C=C1C[C@H](O)[C@H](Br)C(C)(C)C12CCC(C)(Cl)C(Br)C2` (stereo not given in full): the TGI with ACHN renal worked out at 14.8 µM; in the assay on CAKI-1 renal it was 24.5 µM; in the assay with HCT-15 colon, 19.3 µM; with IGROV1 ovarian, 18.8 µM; in the assay with MCF7 breast it was 11.2 µM; in the assay on NCI-H226 lung, 12.7 µM. Also, the TGI in the assay with SNB-75 CNS is 11.2 µM; in the assay on SR leukemia, 19.7 µM; with T-47D breast, 13.5 µM; with UACC-257 melanoma, 3.06 µM.
For `O=C(c1cc2c(c3ccccc13)NC1(CCCCC1)N=C2C(F)(F)F)C(F)(F)F`, the TGI in the assay on ACHN renal stood at 13.8 µM; in the assay with CAKI-1 renal, 13.1 µM; in the assay with HCT-15 colon, 16.7 µM; in the assay with IGROV1 ovarian, 17.3 µM; in the assay on MCF7 breast it was 12.2 µM; with NCI-H226 lung it was 11 µM. The TGI is 19.1 µM with SNB-75 CNS, 13.2 µM in the assay on SR leukemia, 13.5 µM in the assay on T-47D breast and 11.3 µM with UACC-257 melanoma.
As for `O=C(N/N=C/c1ccccc1)c1cccc2nc3ccccc3nc12`, the TGI in the assay with ACHN renal, in the assay on CAKI-1 renal, in the assay on HCT-15 colon, in the assay with IGROV1 ovarian, in the assay with MCF7 breast and with NCI-H226 lung was over 100 µM throughout. For the same compound, the TGI in the assay with SNB-75 CNS, in the assay on SR leukemia, in the assay with T-47D breast and with UACC-257 melanoma was over 100 µM in each case.
